Data published in PubChem BioAssay (NCI).
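96-well plates; 48 h exposure; 5 concentrations. Endpoints by linear interpolation between flanking doses. Not reached: highest tested concentration assigned. Definition used: TGI = concentration required for complete inhibition of growth.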

Key:
Assay in all cases: NCI tumour cell line growth inhibition, 48 h
[1] = system: M14 melanoma
[2] = system: MCF7 breast
[3] = system: MDA-MB-231 breast
[4] = system: EKVX NSCLC
[5] = system: OVCAR-3 ovarian
[6] = system: HOP-62 NSCLC
[7] = system: SK-MEL-2 melanoma
[8] = system: 786-0 renal
[9] = system: HS 578T breast
[10] = system: SN12C renal
[11] = system: NCI/ADR-RES ovarian
[12] = system: CAKI-1 renal
[13] = system: HCT-116 colon
[14] = system: TK-10 renal
[15] = system: SNB-19 CNS
[16] = system: A498 renal
[17] = system: SF-295 CNS
[18] = system: CCRF-CEM leukemia
[19] = system: IGROV1 ovarian
[20] = system: K-562 leukemia
[21] = system: COLO 205 colon
[22] = system: HOP-92 NSCLC
[23] = system: SNB-75 CNS
[24] = system: NCI-H23 lung
[25] = system: UACC-257 melanoma
[26] = system: SF-268 CNS
[27] = system: A549 NSCLC
[28] = system: T-47D breast
[29] = system: HCC-2998 colon
[30] = system: ACHN renal
[31] = system: SK-MEL-28 melanoma
[32] = system: PC-3 prostate
[33] = system: OVCAR-5 ovarian
[34] = system: SW-620 colon
[35] = system: SK-MEL-5 melanoma
[36] = system: HCT-15 colon
[37] = system: SK-OV-3 ovarian
[38] = system: KM12 colon
[39] = system: OVCAR-4 ovarian
[40] = system: LOX IMVI melanoma
[41] = system: UO-31 renal
[42] = system: MDA-N
[43] = system: OVCAR-8 ovarian
[44] = system: HT29 colon
[45] = system: SF-539 CNS
[46] = system: U251 CNS
[47] = system: MALME-3M melanoma
[48] = system: NCI-H460 lung
[49] = system: NCI-H226 lung
[50] = system: MDA-MB-435
[51] = system: HL-60(TB) leukemia
[52] = system: BT-549 breast
[53] = system: SR leukemia
[54] = system: RPMI-8226 leukemia
[55] = system: UACC-62 melanoma
[56] = system: MOLT-4 leukemia
[57] = system: NCI-H522 lung
[58] = system: DU-145 prostate
[59] = system: RXF 393 renal

## C/C(Cl)=N\OC(=O)Nc1ccc(C)cc1
[1]
  TGI: 30.9 µM
[2]
  TGI: 25.3 µM
[3]
  TGI: 37.5 µM
[4]
  TGI: 32.3 µM
[5]
  TGI: 34.3 µM
[6]
  TGI: > 100 µM
[7]
  TGI: 33.1 µM
[8]
  TGI: 32.7 µM
[9]
  TGI: 83 µM
[10]
  TGI: 33.7 µM
[11]
  TGI: 42.1 µM
[12]
  TGI: 30.4 µM
[13]
  TGI: 38.6 µM
[14]
  TGI: 28.5 µM
[15]
  TGI: > 100 µM
[16]
  TGI: 32.9 µM
[17]
  TGI: 30.5 µM
[18]
  TGI: 6.31 µM
[19]
  TGI: 32.5 µM
[20]
  TGI: > 100 µM
[21]
  TGI: 33.3 µM
[22]
  TGI: 37.1 µM
[23]
  TGI: 26.3 µM
[24]
  TGI: 39 µM
[25]
  TGI: 32.9 µM
[26]
  TGI: 32.9 µM
[27]
  TGI: 35.6 µM
[28]
  TGI: 48.2 µM
[29]
  TGI: 31.4 µM
[30]
  TGI: 29.1 µM
[31]
  TGI: 28.1 µM
[32]
  TGI: 29.3 µM
[33]
  TGI: 32.6 µM
[34]
  TGI: 33 µM
[35]
  TGI: 31.5 µM
[36]
  TGI: 31.5 µM
[37]
  TGI: 31.1 µM
[38]
  TGI: 35.1 µM
[39]
  TGI: 32.9 µM
[40]
  TGI: 43.7 µM
[41]
  TGI: 31.3 µM
[42]
  TGI: 29.9 µM
[43]
  TGI: 32.4 µM
[44]
  TGI: 41.6 µM
[45]
  TGI: 35.8 µM
[46]
  TGI: 29.9 µM
[47]
  TGI: 31 µM
[48]
  TGI: 33.4 µM

## CN1C(=O)N(C)C(O)C(Cl)(Br)C1=O (stereo not drawn)
[1]
  TGI: > 100 µM
[49]
  TGI: > 100 µM
[2]
  TGI: > 100 µM
[3]
  TGI: > 100 µM
[4]
  TGI: > 100 µM
[5]
  TGI: > 100 µM
[7]
  TGI: > 100 µM
[8]
  TGI: > 100 µM
[50]
  TGI: > 100 µM
[51]
  TGI: > 100 µM
[9]
  TGI: > 100 µM
[10]
  TGI: > 100 µM
[11]
  TGI: > 100 µM
[12]
  TGI: > 100 µM
[52]
  TGI: > 100 µM
[13]
  TGI: > 100 µM
[14]
  TGI: > 100 µM
[53]
  TGI: > 100 µM
[54]
  TGI: > 100 µM
[15]
  TGI: > 100 µM
[16]
  TGI: > 100 µM
[17]
  TGI: > 100 µM
[18]
  TGI: > 100 µM
[19]
  TGI: > 100 µM
[20]
  TGI: > 100 µM
[21]
  TGI: > 100 µM
[23]
  TGI: > 100 µM
[24]
  TGI: > 100 µM
[25]
  TGI: > 100 µM
[26]
  TGI: > 100 µM
[27]
  TGI: > 100 µM
[29]
  TGI: > 100 µM
[30]
  TGI: > 100 µM
[31]
  TGI: > 100 µM
[32]
  TGI: > 100 µM
[33]
  TGI: > 100 µM
[34]
  TGI: > 100 µM
[35]
  TGI: > 100 µM
[36]
  TGI: > 100 µM
[37]
  TGI: > 100 µM
[38]
  TGI: > 100 µM
[40]
  TGI: > 100 µM
[41]
  TGI: > 100 µM
[55]
  TGI: > 100 µM
[42]
  TGI: > 100 µM
[43]
  TGI: > 100 µM
[44]
  TGI: > 100 µM
[45]
  TGI: > 100 µM
[56]
  TGI: > 100 µM
[46]
  TGI: > 100 µM
[57]
  TGI: > 100 µM
[58]
  TGI: > 100 µM
[59]
  TGI: > 100 µM
[47]
  TGI: > 100 µM
[48]
  TGI: > 100 µM

## CC(C)(C)OC(=O)NC(Cc1ccccc1)NC(=O)NC(=O)OCc1ccccc1 (stereo not drawn)
[1]
  TGI: > 100 µM
[49]
  TGI: > 100 µM
[2]
  TGI: > 100 µM
[4]
  TGI: > 100 µM
[5]
  TGI: > 100 µM
[6]
  TGI: > 100 µM
[7]
  TGI: > 100 µM
[8]
  TGI: > 100 µM
[50]
  TGI: > 100 µM
[9]
  TGI: > 100 µM
[10]
  TGI: > 100 µM
[11]
  TGI: > 100 µM
[12]
  TGI: 64.1 µM
[52]
  TGI: > 100 µM
[13]
  TGI: > 100 µM
[14]
  TGI: > 100 µM
[53]
  TGI: > 100 µM
[54]
  TGI: > 100 µM
[15]
  TGI: > 100 µM
[17]
  TGI: > 100 µM
[19]
  TGI: > 100 µM
[20]
  TGI: > 100 µM
[23]
  TGI: 73.2 µM
[24]
  TGI: > 100 µM
[25]
  TGI: > 100 µM
[26]
  TGI: > 100 µM
[27]
  TGI: > 100 µM
[29]
  TGI: > 100 µM
[30]
  TGI: > 100 µM
[31]
  TGI: > 100 µM
[32]
  TGI: > 100 µM
[33]
  TGI: > 100 µM
[34]
  TGI: > 100 µM
[35]
  TGI: > 100 µM
[36]
  TGI: > 100 µM
[37]
  TGI: > 100 µM
[38]
  TGI: > 100 µM
[41]
  TGI: > 100 µM
[55]
  TGI: > 100 µM
[42]
  TGI: > 100 µM
[43]
  TGI: > 100 µM
[44]
  TGI: > 100 µM
[45]
  TGI: 60.8 µM
[56]
  TGI: > 100 µM
[46]
  TGI: > 100 µM
[57]
  TGI: > 100 µM
[58]
  TGI: > 100 µM
[59]
  TGI: 69.2 µM
[47]
  TGI: > 100 µM
[48]
  TGI: > 100 µM

## CSc1nc(NC(C)C)c2c(n1)Sc1nc3ccccc3n1N=C2
[1]
  TGI: > 100 µM
[49]
  TGI: > 100 µM
[2]
  TGI: 60 µM
[3]
  TGI: 30.2 µM
[4]
  TGI: > 100 µM
[5]
  TGI: 25.1 µM
[6]
  TGI: 22.2 µM
[7]
  TGI: 47.3 µM
[8]
  TGI: 16.7 µM
[50]
  TGI: 70.3 µM
[51]
  TGI: > 100 µM
[9]
  TGI: 54.5 µM
[10]
  TGI: 35.4 µM
[11]
  TGI: 46.7 µM
[12]
  TGI: > 100 µM
[52]
  TGI: > 100 µM
[13]
  TGI: 21.5 µM
[14]
  TGI: 36.8 µM
[53]
  TGI: > 100 µM
[54]
  TGI: > 100 µM
[15]
  TGI: 39 µM
[16]
  TGI: 12.6 µM
[17]
  TGI: 24.1 µM
[18]
  TGI: > 100 µM
[19]
  TGI: > 100 µM
[20]
  TGI: > 100 µM
[21]
  TGI: > 100 µM
[22]
  TGI: 31.2 µM
[24]
  TGI: 38.7 µM
[25]
  TGI: > 100 µM
[26]
  TGI: > 100 µM
[27]
  TGI: 38.6 µM
[29]
  TGI: 25.3 µM
[30]
  TGI: 20.9 µM
[31]
  TGI: > 100 µM
[32]
  TGI: > 100 µM
[33]
  TGI: > 100 µM
[34]
  TGI: 35.3 µM
[35]
  TGI: 23.9 µM
[36]
  TGI: > 100 µM
[37]
  TGI: 28.2 µM
[38]
  TGI: 60.9 µM
[39]
  TGI: 22.5 µM
[40]
  TGI: > 100 µM
[41]
  TGI: 25.6 µM
[55]
  TGI: 23.6 µM
[42]
  TGI: > 100 µM
[43]
  TGI: 28.8 µM
[44]
  TGI: > 100 µM
[56]
  TGI: > 100 µM
[46]
  TGI: 29.9 µM
[57]
  TGI: 50.5 µM
[58]
  TGI: 31.3 µM
[47]
  TGI: 38 µM
[48]
  TGI: 79.5 µM
